Ends that are not written are not given here.
System: LLCPK1-B64 cells or SaOS-2 cells
Experiment: cAMP screen of substituted PTHrP(1-28) analogs (% parent)
Format: cell-based
Settings: parent PTHrP(1-28)NH
Procedure: Alanine substitution at position 18, 22, 25 and 26 increased activity in at least one cell type. These positions were further substituted to various types of amino acids, and cAMP activity was analyzed in LLCPK1-B64 cells (FIG. 27C) or SaOS-2 cells (FIG. 27D). Cells were treated with analogs at 3×10^−9M in the presence of IBMX for 30 minutes at room temperature. Responses for each analog were normalized to the response for the parent (native) PTHrP(1-28) peptide. Alanine substitutions were A^15 to A^17 (SEQ ID NO:152-154), A^18 (SEQ ID NO:34), A^19 to A^21 (SEQ ID NO:155-157), A^22 (SEQ ID NO:39), A^23 to A^25 (SEQ ID NO:158-160), A^26 (SEQ ID NO:46), and A^27 to A^28 (SEQ ID NO:161-162). Substitutions at position 18 were A^18 (SEQ ID NO: 34), G^18 (SEQ ID NO:163), S^18 (SEQ ID NO:35), M^18 (SEQ ID NO:36), L^18 (SEQ ID NO:164), F^18 (SEQ ID NO:37), N^18 (SEQ ID NO:165), E^18 (SEQ ID NO:38), and K^18 (SEQ ID NO:166). Substitutions at position 22 were A^22 (SEQ ID NO:39), G^22 (SEQ ID NO:167), and S^22 to K^22 (SEQ ID NO:40-45). Substitutions at position 26 were A^26 (SEQ ID NO:46), G^26 (SEQ ID NO:168), S^26 (SEQ ID NO:47), L^26 (SEQ ID NO:169), N^26 (SEQ ID NO:48), W^26 to E^26 (SEQ ID NO:170-171), and K^26 to R^26 (SEQ ID NO:49-50). Substitutions at position 25 were G^25 to S^25 (SEQ ID NO:172-173), L^25 (SEQ ID NO:51), N^25 (SEQ ID NO:174), W^25 (SEQ ID NO:52), E^25 (SEQ ID NO:175), and K^25 to R^25 (SEQ ID NO:53-54). […]

Going from “A18,22,F25,K26-PTHrP(1-28) (AVSEHQLLHDKGKSIQDARRRAFLFKLI-NH2) [A18, 22, F25, K26-PTHrP(1-28)NH]” to “A18,22,I25,K26-PTHrP(1-28) (AVSEHQLLHDKGKSIQDARRRAFLIKLI-NH2) [A18, 22, I25, K26-PTHrP(1-28)NH]”, the “screen cAMP (% parent)” value rises from 337 % parent to 342 % parent.

First: A18,22,W25,K26-PTHrP(1-28) (AVSEHQLLHDKGKSIQDARRRAFLWKLI-NH2) [A18, 22, W25, K26-PTHrP(1-28)NH]
Second: A18-PTHrP(1-28) (AVSEHQLLHDKGKSIQDARRRFFLHHLI-NH2) [A18-PTHrP(1-28)NH]
The “screen cAMP (% parent)” value of the first is higher: 329 % parent for the first, 164 % parent for the second.

Compared with “A22-PTHrP(1-28) (AVSEHQLLHDKGKSIQDLRRRAFLHHLI-NH2) [A22-PTHrP(1-28)NH]”, “A26-PTHrP(1-28) (AVSEHQLLHDKGKSIQDLRRRFFLHALI-NH2) [A26-PTHrP(1-28)NH]” is lower in “screen cAMP (% parent)” value: 185 % parent for the first, 142 % parent for the second.

Going from “E18,A22,26-PTHrP(1-28) (AVSEHQLLHDKGKSIQDERRRAFLHALI-NH2) [E18, A22, 26-PTHrP(1-28)NH]” to “E18,S22,K25,26-PTHrP(1-28) (AVSEHQLLHDKGKSIQDERRRSFLKKLI-NH2) [E18, S22, K25, 26-PTHrP(1-28)NH]”, the “screen cAMP (% parent)” value rises from 190 % parent to 335 % parent.

Going from “E18-PTHrP(1-28) (AVSEHQLLHDKGKSIQDERRRFFLHHLI-NH2) [E18-PTHrP(1-28)NH]” to “E22-PTHrP(1-28) (AVSEHQLLHDKGKSIQDLRRREFLHHLI-NH2) [E22-PTHrP(1-28)NH]”, the “screen cAMP (% parent)” value falls from 140 % parent to 121 % parent.

First: F18-PTHrP(1-28) (AVSEHQLLHDKGKSIQDFRRRFFLHHLI-NH2) [F18-PTHrP(1-28)NH]
Second: K22-PTHrP(1-28) (AVSEHQLLHDKGKSIQDLRRRKFLHHLI-NH2) [K22-PTHrP(1-28)NH]
The “screen cAMP (% parent)” value of the first is lower: 109 % parent for the first, 150 % parent for the second.

Going from “K25-PTHrP(1-28) (AVSEHQLLHDKGKSIQDLRRRFFLKHLI-NH2) [K25-PTHrP(1-28)NH]” to “K26-PTHrP(1-28) (AVSEHQLLHDKGKSIQDLRRRFFLHKLI-NH2) [K26-PTHrP(1-28)NH]”, the “screen cAMP (% parent)” value falls from 163 % parent to 142 % parent.

First: L22-PTHrP(1-28) (AVSEHQLLHDKGKSIQDLRRRLFLHHLI-NH2) [L22-PTHrP(1-28)NH]
Second: L25-PTHrP(1-28) (AVSEHQLLHDKGKSIQDLRRRFFLLHLI-NH2) [L25-PTHrP(1-28)NH]
The “screen cAMP (% parent)” value of the first is lower: 142 % parent for the first, 325 % parent for the second.

Compared with “M18-PTHrP(1-28) (AVSEHQLLHDKGKSIQDMRRRFFLHHLI-NH2) [M18-PTHrP(1-28)NH]”, “N22-PTHrP(1-28) (AVSEHQLLHDKGKSIQDLRRRNFLHHLI-NH2) [N22-PTHrP(1-28)NH]” is higher in “screen cAMP (% parent)” value: 113 % parent for the first, 138 % parent for the second.

First: N26-PTHrP(1-28) (AVSEHQLLHDKGKSIQDLRRRFFLHNLI-NH2) [N26-PTHrP(1-28)NH]
Second: R25-PTHrP(1-28) (AVSEHQLLHDKGKSIQDLRRRFFLRHLI-NH2) [R25-PTHrP(1-28)NH]
The “screen cAMP (% parent)” value of the first is lower: 113 % parent for the first, 204 % parent for the second.

Going from “R26-PTHrP(1-28) (AVSEHQLLHDKGKSIQDLRRRFFLHRLI-NH2) [R26-PTHrP(1-28)NH]” to “S18-PTHrP(1-28) (AVSEHQLLHDKGKSIQDSRRRFFLHHLI-NH2) [S18-PTHrP(1-28)NH]”, the “screen cAMP (% parent)” value falls from 143 % parent to 121 % parent.

Going from “S22-PTHrP(1-28) (AVSEHQLLHDKGKSIQDLRRRSFLHHLI-NH2) [S22-PTHrP(1-28)NH]” to “S26-PTHrP(1-28) (AVSEHQLLHDKGKSIQDLRRRFFLHSLI-NH2) [S26-PTHrP(1-28)NH]”, the “screen cAMP (% parent)” value falls from 141 % parent to 107 % parent.

Going from “W22-PTHrP(1-28) (AVSEHQLLHDKGKSIQDLRRRWFLHHLI-NH2) [W22-PTHrP(1-28)NH]” to “W25-PTHrP(1-28) (AVSEHQLLHDKGKSIQDLRRRFFLWHLI-NH2) [W25-PTHrP(1-28)NH]”, the “screen cAMP (% parent)” value rises from 129 % parent to 270 % parent.

From patent US9057727B2, “Screening methods using G-protein coupled receptors and related compositions” (The General Hospital Corporation, priority 2007, dated 2015)
